From patent US10385096B2, “Pro-Amb reverse turn restricted bioactive peptide analogues” (Council of Scientific & Industrial Research, priority 2016, dated 2019)

What was measured:
AT2 receptor [1] = assay: neurite outgrowth assay in NG108-15 cells (functional activity at the AT2 receptor); type: cell-based; settings: PD 123319 alone (10 μM), 3 days
Method: The functional activity of the analogues of the present invention was evaluated at the AT2 receptor, applying a neurite outgrowth assay in NG108-15 [108CC15] (ATCC® HB12317™) cells. […] The signaling pathways involve a sustained increase in Rap1/BRaf/p42/p44mapk activity and activation of the nitric oxide/guanylyl cyclase/cGMP pathway. NG108-15 cells were treated in absence or presence of Ang II and PD 123319, an AT2 receptor antagonist. The cells were plated at the initial density of 3.6×10^4 cells/petri dish (35 mm) and were cultured for 3 days in the absence (−) or presence (+) of 100 nM Ang II, 1 μM analogue 3, analogue 2 and analogue 1 alone or in combination with 10 μM antagonist PD 123,319 or 100 nM AngII. After 3 days of treatment, the cells were examined under a phase contrast microscope and micrographs were taken. Cells with at least one neurite longer than a cell body were counted as a positive neurite outgrowth. Antagonistic effect was established through co-incubation with Ang II resulting in reduced Ang II-induced neurite outgrowth, verifying blockage of the AT2 receptor. […] The number of cells with neurites was expressed as the percentage of the total number in the micrographs (at least 260 cells according to the experiment). […]
NG108-15 [108CC15] […] Cells with at least one neurite longer than a cell body were counted as positive for neurite outgrowth. […]

AT2 receptor [2] = settings: 3-day treatment, undifferentiated NG108-15 cells; reported by Blankley et al; cited from earlier work

Molecule | cell morphology compared to untreated cells (AT2 receptor [1]) | neurite outgrowth in NG108-15 cells (earlier reported) (AT2 receptor [2])
Cc1cc(Cn2cnc3c2C[C@@H](C(=O)O)N(C(=O)C(c2ccccc2)c2ccccc2)C3)ccc1N(C)C [PD 123319] | did not alter the morphology | 
CGP-42112A |  | induces neurite outgrowth
Asp-Arg-Val-Tyr-Ile-His-Pro-Phe (DRVYIHPF) [Ang II, octapeptide, endogenous substrate for AT1 and AT2 receptors] |  | induces neurite outgrowth
